Experimental data from ChEMBL document CHEMBL2074312, “Involvement of multispecific organic anion transporter, Oatp14 (Slc21a14), in the transport of thyroxine across the blood-brain barrier” (Endocrinology, 2004).

Biological target: Solute carrier organic anion transporter family member 1C1
Experiment: TP_TRANSPORTER: inhibition of L-T4 uptake in Oatp14-expressing HEK293 cells
Assay type: functional, cell-based

| Structure (SMILES) | Ki [µM] |
| --- | --- |
| N[C@H](Cc1cc(I)c(Oc2cc(I)c(O)c(I)c2)c(I)c1)C(=O)O [DEXTROTHYROXINE] | 0.27 |
| CCCN(CCC)S(=O)(=O)c1ccc(C(=O)O)cc1 [PROBENECID] | 293 |
| N[C@@H](Cc1ccc(Oc2cc(I)c(O)c(I)c2)c(I)c1)C(=O)O [REVERSE TRIIODOTHYRONINE] | 0.91 |
| N[C@@H](Cc1cc(I)c(Oc2ccc(O)c(I)c2)c(I)c1)C(=O)O [LIOTHYRONINE] | 24.2 |
| C[C@]12CC[C@@H]3c4ccc(O)cc4CC[C@H]3[C@@H]1CC[C@@H]2O[C@@H]1O[C@H](C(=O)O)[C@@H](O)[C@H](O)[C@H]1O [ESTRADIOL 17B GLUCURONIDE] | > 100 |
| O=C(O)Cc1cc(I)c(Oc2ccc(O)c(I)c2)c(I)c1 [TIRATRICOL] | 2.15 |
| C[C@]12CC[C@@H]3c4ccc(OS(=O)(=O)O)cc4CC[C@H]3[C@@H]1CCC2=O [ESTRONE SULFURIC ACID] | 53.1 |
